# Test system: up to 32 different microorganisms
# Experiment: in vitro antibacterial activity (MIC), agar dilution on Brain Heart Infusion (BHI) agar with Steers replicator
# Type: cell-based
# Conditions: unit assumed
# Outline: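 Agar dilution MIC: twelve successive compound dilutions in BHI agar, spot-inoculated with 1:100 (1:10 for slow growers) organism dilutions by Steers replicator, incubated 35-37° C for 20-24 h. MIC is lowest concentration showing no growth, slight haze or sparse colonies versus drug-free control; erythromycin A as class reference.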
# [1] = Candida albicans CCH 442 (code TT)
# [2] = Enterococcus faecism ATCC 8043 (code II)
# [3] = Escherichia coli DC-2 (code SS)
# [4] = Escherichia coli JUHL (code QQ)
# [5] = Haemophilis influenzae DILL AMP R (code WW)
# [6] = Micrococcus luteus ATCC 4698 (code PP)
# [7] = Micrococcus luteus ATCC 9341 (code OO)
# [8] = Mycobacterium smegmatis ATCC 114 (code UU)
# [9] = Nocardia Asteroides ATCC9970 (code VV)
# [10] = Staphylococcus aureus 1775 (code GG)
# [11] = Staphylococcus aureus A5177 (code BB)
# [12] = Staphylococcus aureus A-5278 (code CC)
# [13] = Staphylococcus aureus ATCC 6538P (code AA)
# [14] = Staphylococcus aureus CMX 553 (code FF)
# [15] = Staphylococcus aureus CMX 642A (code DD)
# [16] = Staphylococcus aureus NCTC10649M (code EE)
# [17] = Staphylococcus epidermidis 3519 (code HH)
# [18] = Streptococcus Pneumonia 5649 (code ZZA)
# [19] = Streptococcus Pneumonia 5979 (code ZZ)
# [20] = Streptococcus Pneumonia ATCC6303 (code XX)
# [21] = Streptococcus Pneumonia GYR 1171 (code YY)
# [22] = Streptococcus agalactiae CMX 508 (code KK)
# [23] = Streptococcus bovis A-5169 (code JJ)
# [24] = Streptococcus pyogenes 930 (code MM)
# [25] = Streptococcus pyogenes EES61 (code LL)
# [26] = Streptococcus pyogenes PIU 2548 (code NN)
smiles,measurement,setting,value
"CCC1OC(=O)C(C)C(=O)C(C)C(OC2OC(C)CC(N(C)C)C2O)C(C)(OCC=Cc2ccc(-n3cccc3)cc2)CC(C)C(=O)C(C)C2NC(=O)OC12C (centres unmarked) [Example 282, Compound of Formula (IX): L is CO, T is NH2, R is —CH2CH═CH-(4-pyrrolylphenyl)]",MIC,organism code AA,0.2 µg/mL
same,MIC,organism code BB,0.1 µg/mL
same,MIC,organism code CC,100 µg/mL
same,MIC,organism code DD,0.2 µg/mL
same,MIC,organism code EE,0.2 µg/mL
same,MIC,organism code FF,0.1 µg/mL
same,MIC,organism code GG,100 µg/mL
same,MIC,organism code HH,0.2 µg/mL
same,MIC,organism code II,0.05 µg/mL
same,MIC,organism code JJ,0.01 µg/mL
same,MIC,organism code KK,≤ 0.005 µg/mL
same,MIC,organism code LL,≤ 0.005 µg/mL
same,MIC,organism code MM,25 µg/mL
same,MIC,organism code NN,0.1 µg/mL
same,MIC,organism code OO,0.05 µg/mL
same,MIC,organism code PP,0.2 µg/mL
same,MIC,organism code QQ,> 100 µg/mL
same,MIC,organism code RR,0.78 µg/mL
same,MIC,organism code SS,> 100 µg/mL
same,MIC,organism code TT,> 100 µg/mL
same,MIC,organism code UU,1.56 µg/mL
same,MIC,organism code VV,0.2 µg/mL
same,MIC,organism code WW,8 µg/mL
same,MIC,organism code XX,0.03 µg/mL
same,MIC,organism code YY,0.03 µg/mL
same,MIC,organism code ZZ,36 µg/mL
same,MIC,organism code ZZA,0.25 µg/mL
"CC[C@H]1OC(=O)[C@H](C)C(=O)[C@H](C)[C@@H](O[C@@H]2O[C@H](C)C[C@H](N(C)C)[C@H]2O)[C@@](C)(OCCNCc2ccccc2)C[C@@H](C)C(=O)[C@H](C)[C@@H](O)[C@]1(C)O [Example 9, Compound of Formula (VIII): X is O, R is —CH2CH2NHCH2-Phenyl]",MIC,[1],> 100 µg/mL
same,MIC,[2],0.78 µg/mL
same,MIC,[3],25 µg/mL
same,MIC,[4],25 µg/mL
same,MIC,Escherichia coli SS (code RR),0.39 µg/mL
same,MIC,[5],16 µg/mL
same,MIC,[6],0.78 µg/mL
same,MIC,[7],0.2 µg/mL
same,MIC,[8],6.2 µg/mL
same,MIC,[9],0.2 µg/mL
same,MIC,[10],> 100 µg/mL
same,MIC,[11],1.56 µg/mL
same,MIC,[12],> 100 µg/mL
same,MIC,[13],3.1 µg/mL
same,MIC,[14],3.1 µg/mL
same,MIC,[15],6.2 µg/mL
same,MIC,[16],0.78 µg/mL
same,MIC,[17],3.1 µg/mL
same,MIC,[18],4 µg/mL
same,MIC,[19],> 64 µg/mL
same,MIC,[20],0.25 µg/mL
same,MIC,[21],0.25 µg/mL
same,MIC,[22],0.39 µg/mL
same,MIC,[23],0.05 µg/mL
same,MIC,[24],> 100 µg/mL
same,MIC,[25],0.39 µg/mL
same,MIC,[26],0.78 µg/mL
"CC[C@H]1OC(=O)[C@H](C)C(=O)[C@H](C)[C@@H](O[C@@H]2O[C@H](C)C[C@H](N(C)C)[C@H]2O)[C@@](C)(OCC=NOCc2cccc3ccccc23)C[C@@H](C)C(=O)[C@H](C)[C@H]2NC(=O)O[C@@]21C [Example 235, Compound of Formula (IX): L is CO, T is NH, R is —CH2CH═NOCH2(1-naphthyl)]",MIC,organism code AA,0.2 µg/mL
same,MIC,organism code BB,0.2 µg/mL
same,MIC,organism code CC,> 100 µg/mL
same,MIC,organism code DD,0.2 µg/mL
same,MIC,organism code EE,0.2 µg/mL
same,MIC,organism code FF,0.2 µg/mL
same,MIC,organism code GG,> 100 µg/mL
same,MIC,organism code HH,0.2 µg/mL
same,MIC,organism code II,0.05 µg/mL
same,MIC,organism code JJ,0.01 µg/mL
same,MIC,organism code KK,0.01 µg/mL
same,MIC,organism code LL,0.01 µg/mL
same,MIC,organism code MM,25 µg/mL
same,MIC,organism code NN,0.2 µg/mL
same,MIC,organism code OO,0.05 µg/mL
same,MIC,organism code PP,0.39 µg/mL
same,MIC,organism code QQ,> 100 µg/mL
same,MIC,organism code RR,0.78 µg/mL
same,MIC,organism code SS,> 100 µg/mL
same,MIC,organism code TT,> 100 µg/mL
same,MIC,organism code UU,0.78 µg/mL
same,MIC,organism code VV,3.1 µg/mL
same,MIC,organism code WW,4 µg/mL
same,MIC,organism code XX,0.03 µg/mL
same,MIC,organism code YY,0.03 µg/mL
same,MIC,organism code ZZ,32 µg/mL
same,MIC,organism code ZZA,0.5 µg/mL
"CC[C@H]1OC(=O)[C@H](C)C(=O)[C@H](C)[C@@H](O[C@@H]2O[C@H](C)C[C@H](N(C)C)[C@H]2O)[C@@](C)(OCC=Cc2cnc3ccccc3c2)C[C@@H](C)C(=O)[C@H](C)[C@H]2OC(=O)O[C@@]21C [Example 75, Compound of Formula (IX): L is CO, T is O, R is —CH2CH═CH-(3-quinolyl)]",MIC,[1],100 µg/mL
same,MIC,[2],0.1 µg/mL
same,MIC,[3],> 100 µg/mL
same,MIC,[4],50 µg/mL
same,MIC,Escherichia coli SS (code RR),0.39 µg/mL
same,MIC,[5],2 µg/mL
same,MIC,[6],0.2 µg/mL
same,MIC,[7],0.02 µg/mL
same,MIC,[8],0.39 µg/mL
same,MIC,[9],0.05 µg/mL
same,MIC,[10],> 100 µg/mL
same,MIC,[11],0.1 µg/mL
same,MIC,[12],> 100 µg/mL
same,MIC,[13],0.1 µg/mL
same,MIC,[14],0.1 µg/mL
same,MIC,[15],0.1 µg/mL
same,MIC,[16],0.1 µg/mL
same,MIC,[17],0.1 µg/mL
same,MIC,[18],0.5 µg/mL
same,MIC,[19],64 µg/mL
same,MIC,[20],0.03 µg/mL
same,MIC,[21],0.03 µg/mL
same,MIC,[22],0.01 µg/mL
same,MIC,[23],< 0.005 µg/mL
same,MIC,[24],3.1 µg/mL
same,MIC,[25],0.02 µg/mL
same,MIC,[26],0.1 µg/mL
"CCC1OC(=O)C(C)C(=O)C(C)C(OC2OC(C)CC(N(C)C)C2O)C(C)(OCC=Cc2cccnc2)CC(C)C(=O)C(C)C2NC(=O)OC12C (centres unmarked) [Example 185, R is —CH2CH═CH-(3-pyridyl)]",MIC,[1],> 100 µg/mL
same,MIC,[2],0.05 µg/mL
same,MIC,[3],100 µg/mL
same,MIC,[4],100 µg/mL
same,MIC,Escherichia coli SS (code RR),0.39 µg/mL
same,MIC,[5],1 µg/mL
same,MIC,[6],0.1 µg/mL
same,MIC,[7],0.01 µg/mL
same,MIC,[8],3.1 µg/mL
same,MIC,[9],0.1 µg/mL
same,MIC,[10],> 100 µg/mL
same,MIC,[11],0.1 µg/mL
same,MIC,[12],> 100 µg/mL
same,MIC,[13],0.1 µg/mL
same,MIC,[14],0.1 µg/mL
same,MIC,[15],0.1 µg/mL
same,MIC,[16],0.1 µg/mL
same,MIC,[17],0.1 µg/mL
same,MIC,[18],0.5 µg/mL
same,MIC,[19],> 128 µg/mL
same,MIC,[20],0.03 µg/mL
same,MIC,[21],0.03 µg/mL
same,MIC,[22],0.01 µg/mL
same,MIC,[23],≤ 0.005 µg/mL
same,MIC,[24],> 100 µg/mL
same,MIC,[25],0.01 µg/mL
same,MIC,[26],0.2 µg/mL
"CC[C@H]1OC(=O)[C@H](C)C(=O)[C@H](C)[C@@H](O[C@@H]2O[C@H](C)C[C@H](N(C)C)[C@H]2O)[C@@](C)(OCC=Cc2cnc3ccccc3c2)C[C@@H](C)C(=O)[C@H](C)[C@@H](O)[C@]1(C)O [Example 18, Compound of Formula (VIII): X is O, R is —CH2CH═CH-(3-quinolyl)]",MIC,[1],> 100 µg/mL
same,MIC,[2],0.2 µg/mL
same,MIC,[3],> 100 µg/mL
same,MIC,[4],> 100 µg/mL
same,MIC,Escherichia coli SS (code RR),0.39 µg/mL
same,MIC,[5],16 µg/mL
same,MIC,[6],0.2 µg/mL
same,MIC,[9],0.1 µg/mL
same,MIC,[10],> 100 µg/mL
same,MIC,[11],0.2 µg/mL
same,MIC,[12],> 100 µg/mL
same,MIC,[13],0.2 µg/mL
same,MIC,[14],0.2 µg/mL
same,MIC,[15],0.2 µg/mL
same,MIC,[16],0.2 µg/mL
same,MIC,[17],0.2 µg/mL
same,MIC,[18],0.25 µg/mL
same,MIC,[19],128 µg/mL
same,MIC,[20],0.03 µg/mL
same,MIC,[22],0.2 µg/mL
same,MIC,[24],100 µg/mL
same,MIC,[25],0.2 µg/mL
same,MIC,[26],0.1 µg/mL
